Reference: patent EP0989125B1, “Pesticidal furylmethyl cyclopropanecarboxylates” (Sumitomo Chemical Company, Limited, priority 1998, dated 2000)

How the values were obtained:
[1] = system: brown planthopper (Nilaparvata lugens); test: Biological test 2: rice plant stalk dipped in emulsion; format: in vivo; conditions: 500 ppm aqueous emulsion, larvae, after 6 days
Description: A stalk of a rice plant was dipped for one minute in a 500 ppm aqueous emulsion obtained by diluting each emulsifiable concentrate of the present compounds prepared according to the formulation example 1. The rice plant stalk was air-dried and placed in a polyethylene cup (diameter : 5.5 cm) where filter paper (diameter : 5.5 cm) impregnated with 1 ml of water was put. Approximately 30 larvae of brown planthopper (Nilaparvata lugens) were put in the polyethylene cup. After 6 days, the mortality of the larvae was examined.

[2] = system: common mosquitoes (Culex pipiens pallens); test: Biological test 6: mosquito larvae in treated water; format: in vivo; conditions: 3.5 ppm active ingredient in water, last-instar larvae, after one day; 1440 min
Description: 0.7 ml of aqueous emulsion, obtained by diluting emulsifiable concentrate prepared for each of the present compounds according to the formulation example 1 was added to 100 ml of ion-exchanged water (concentration of active ingredient : 3.5 ppm). Twenty last-instar larvae of common mosquitoes (Culex pipiens pallens) were left in the water. After one day, the mortality of the common mosquitoes was examined.

[3] = system: common mosquitoes (Culex pipiens pallens); test: Biological test 7: oil solution sprayed in glass chamber, knock-down; format: in vivo; conditions: 0.7 ml of 0.1 % oil solution sprayed, 0.34 m^3 chamber, after 15 minutes
Description: Ten female common mosquitoes (Culex pipiens pallens) were left in a glass chamber (70 cm × 70 cm × 70 cm : 0.34 m^3). 0.7 ml of 0.1 % oil solution prepared for each of the present compounds according to the formulation example 7 was sprayed with a spray gun at 0.8 atmospheric pressure. After 15 minutes, the rate of knocked-down mosquitoes was examined.

[4] = system: common mosquitoes (Culex pipiens pallens); test: Biological test 8: mosquito-coil in glass chamber, knock-down; format: in vivo; conditions: 1.0 g of 0.3 % mosquito-coil, 0.34 m^3 chamber, after 15 minutes
Description: Mosquito-coil containing the present compound in an amount of 0.3 % was prepared according to the formulation example 10 for the present compounds. Ten female common mosquitoes (Culex pipiens pallens) were left in a glass chamber (70 cm × 70 cm × 70 cm : 0.34 m^3) and 1.0 g of 0.3 % mosquito-coil having both ends lit was placed in the glass chamber. After 15 minutes, the rate of knocked-down mosquitoes was examined.

[5] = system: houseflies (Musca domestica); test: Biological test 9: topical application of acetone solution to houseflies; format: in vivo; conditions: 5 µg / one housefly, after 24 hours
Description: After 24 hours, the percent moribund was examined (two replicate).

[6] = system: houseflies (Musca domestica); test: Biological test 10: vapour exposure over treated aluminum plate, houseflies; format: in vivo; conditions: 0.64 ml of 0.05 (w/v) % acetone solution, no direct contact, 25 °C for 120 minutes, after 24 hours
Description: (§1) After 0.64 ml of a 0.05 (w/v) % acetone solution of the present compounds was dropped into an aluminum plate (bottom diameter : 7 cm), acetone was air-dried. Ten female houseflies (Musca domestica) were left in a polyethylene cup (diameter : 9 cm; depth : 4.5 cm) and the cup was sealed with a 16-mesh nylon net to prevent direct contact of the houseflies with the compound. The cup was placed upside down on the aluminum plate at 25 °C for 120 minutes. The cup was then removed from the aluminum plate, and water and feed were given to the houseflies. After 24 hours, the percent moribund was examined (two replicate).

[7] = system: common mosquitoes (Culex pipiens pallens); test: Biological test 11: vapour exposure over treated aluminum plate, mosquitoes; format: in vivo; conditions: 0.64 ml of 0.05 (w/v) % acetone solution, no direct contact, 25 °C for 120 minutes, after 24 hours
Description: as §1, with “common mosquitoes (Culex pipiens pallens)” for “houseflies (Musca domestica)”, “mosquitoes” for “houseflies”, “mosquitoes.” for “houseflies.”, “mortality” for “percent moribund”

[8] = system: webbing clothes moth (Tineola bisselliella); test: Biological test 12: topical application to webbing clothes moth larvae; format: in vivo; conditions: 3 µg / insect, after 7 days
Description: Each of the present compounds diluted with acetone to a predetermined concentration was applied to ten middle instar larvae of webbing clothes moth (Tineola bisselliella) at the central part of the back so as to give the active ingredient in a dose of 3 µg / insect. A wool muslin fabric (2 cm × 2 cm in size) was given to the webbing clothes moths as the food. After 7 days, the mortality and the degree of damage of the wool muslin fabric by the moths were examined (two replicate).

[9] = system: webbing clothes moth (Tineola bisselliella); test: Biological test 13: volatile agent hung in cup with webbing clothes moth larvae; format: in vivo; conditions: volatile agent (100 µg on filter paper), 25 °C for 1 week; for mortality: 10080 min
Description: A wool muslin fabric (2 cm × 2 cm in size) was placed on the bottom of a polyethylene cup (bottom diameter : 10 cm, opening part diameter : 12.5 cm, height : 9.5 cm, volume : 950 cm^3 ). Ten middle instar larvae of webbing clothes moth (Tineola bisselliella) were put in the cup and each of the volatile agents prepared according to the formulation example 14 was hung from the cap in the interior of the cup. After standing at 25 °C for 1 week, the cup was opened, and the mortality and the degree of damage of the wool muslin fabric by the moths were examined (two replicate).

[10] = system: webbing clothes moth (Tineola bisselliella); test: Biological test 14: persistence of treated filter paper in cardboard box, webbing clothes moth larvae; format: in vivo; design: key to degree of damage: -: no damage; +: slight damage; ++: heavy damage; +++: severe damage; conditions: 36 mg on filter paper
Description: A filter paper (3.2 cm × 3.2 cm in size) treated with 36 mg of each of the present compounds and two wool muslin fabrics (25 cm × 25 cm in size) were hung down at the upper part of a corrugated cardboard box (29 cm × 29 cm × 29 cm in size). After standing at 25 °C and a humidity of 60 % for 1 week, two tea-strainer balls holding 7 to 10 middle instar larvae of webbing clothes moth (Tineola bisselliella) and one piece of wool muslin cloth (2 cm × 2 cm in size) were hung down at the upper part of the box. The box was closed with a lid. After one week, the box was opened, and the percent moribund and the degree of damage of the wool muslin cloth by the moths were examined. The same tests was repeated 2 weeks, 3 weeks and 5 weeks after the treatment to examine the persistance of the present compound. The degree of damage was represented by "-" in no damage, " + " in slight damage, " ++ " in heavy damage and "+++ " in severe damage.

[11] = system: tobacco cutworm (Spodoptera litura); test: Biological test 1: artificial bait impregnated with emulsion; conditions: 500 ppm emulsion, 4-instar larvae, after 6 days
[12] = system: southern corn rootworm (Diabrotica undecimpunctata howardi); test: Biological test 3: treated filter paper with eggs and sprouting corn; conditions: 50 ppm aqueous emulsion, after 8 days
[13] = system: houseflies (Musca domestica); test: Biological test 4: treated filter paper with sucrose bait, houseflies low sensitive to pyrethroids; conditions: 500 ppm aqueous emulsion, female houseflies low sensitive to pyrethroids, after one day; 1440 min
[14] = system: German cockroaches (Blattella germanica); test: Biological test 5: treated filter paper with sucrose bait, cockroaches low sensitive to pyrethroids; conditions: 500 ppm aqueous emulsion, male cockroaches low sensitive to pyrethroids, after six days; 8640 min
rats = conditions: male 7-week old rats, into the stomach in corn oil, after 7 days
Description: After subjecting the rats to a twenty-hour fasting, 0.1 ml of the diluted solution per 10g weight was forcibly applied into the stomach of four male 7-week old rats. The rats were given food and water four hours after the application and thereafter regularly fed and watered, and kept in a cage. After 7 days, the mortality was examined for the rats and LD50 was calculated.

| SMILES | mortality [1] [%] | mortality [2] [%] | rate of knocked-down mosquitoes [3] [%] | rate of knocked-down mosquitoes [4] [%] | percent moribund [5] [%] | percent moribund [6] [%] | mortality [7] [%] | degree of damage of the wool muslin fabric [8] | mortality [8] [%] | degree of damage of the wool muslin fabric [9] | mortality [9] [%] | degree of damage ([10]; After 1 week) | percent moribund ([10]; After 1 week) [%] | degree of damage ([10]; After 2 weeks) | percent moribund ([10]; After 2 weeks) [%] | degree of damage ([10]; After 3 weeks) | percent moribund ([10]; After 3 weeks) [%] | degree of damage ([10]; After 5 weeks) | percent moribund ([10]; After 5 weeks) [%] | mortality [11] [%] | further results |
| --- | --- | --- | --- | --- | --- | --- | --- | --- | --- | --- | --- | --- | --- | --- | --- | --- | --- | --- | --- | --- | --- |
| CCc1ccc(COC(=O)[C@@H]2[C@H](/C=C(\Cl)C(F)(F)F)C2(C)C)o1 (racemic) [present compound (2), 5-ethyl-2-furfuryl (1RS,cis)-3-(Z-2-chloro-3,3,3-trifluoroprop-1-enyl)-2,2-dimethylcyclopropanecarboxylate] | ≥ 90 | ≥ 90 | ≥ 90 | 100 | 100 | 100 | 100 | no damage | 100 | no damage | 100 | - | 100 | - | 100 | - | 100 | - | 100 | 100 | mortality of the hatched larvae and eggs [12]: 100%; mortality [13]: 100%; mortality [14]: 100% |
| CCCc1ccc(COC(=O)[C@@H]2[C@H](/C=C(\Cl)C(F)(F)F)C2(C)C)o1 (racemic) [present compound (3), 5-propyl-2-furfuryl (1RS,cis)-3-(Z-2-chloro-3,3,3-trifluoroprop-1-enyl)-2,2-dimethylcyclopropanecarboxylate] | ≥ 90 | ≥ 90 | ≥ 90 | 100 | 100 | 100 | 100 | no damage | 100 | no damage | 100 | - | 100 | - | 100 | - | 100 | - | 100 | 100 | mortality of the hatched larvae and eggs [12]: 100%; mortality [13]: 100%; mortality [14]: 100% |
| C=CCc1ccc(COC(=O)[C@@H]2[C@H](/C=C(\Cl)C(F)(F)F)C2(C)C)o1 (racemic) [present compound (4), 5-allyl-2-furfuryl (1RS,cis)-3-(Z-2-chloro-3,3,3-trifluoroprop-1-enyl)-2,2-dimethylcyclopropanecarboxylate] | ≥ 90 | ≥ 90 | ≥ 90 | 100 | 100 | 100 | 100 | no damage | 100 | no damage | 100 | - | 100 | - | 100 | - | 100 | - | 100 | 100 | mortality of the hatched larvae and eggs [12]: 100%; mortality [13]: 100%; mortality [14]: 100% |
| CC1(C)C(/C=C(\Cl)C(F)(F)F)C1C(=O)OCc1coc(Cc2ccccc2)c1 (centres unmarked) [A, reference compound] |  |  |  |  |  |  |  |  |  |  |  | +++ | 0 | +++ | 0 | +++ | 5 | +++ | 5 |  | LD50 (rats): less than 50 mg/kg |
| CC1(C)C(/C=C(\Cl)C(F)(F)F)C1C(=O)OCc1ccc(C(F)F)o1 (centres unmarked) [B, reference compound] |  |  |  |  |  |  |  |  |  |  |  | +++ | 50 | +++ | 33 | +++ | 53 | +++ | 42 |  |  |
| C#CCc1ccc(COC(=O)C2C(/C=C(\Cl)C(F)(F)F)C2(C)C)o1 (centres unmarked) [C, reference compound] |  |  |  |  |  |  |  |  |  |  |  | +++ | 7 | +++ | 63 | +++ | 20 | +++ | 37 |  | LD50 (rats): less than 100 mg/kg |
